Data taken from patent US12391676B2 (H. LEE MOFFITT CANCER CENTER AND RESEARCH INSTITUTE, INC., priority 2018, dated 2025).

Tests used:
BRD4 = BRD4 (Homo sapiens (Human), UniProt O60885); assay: BRD4 DSF thermal shift (ΔTm); format: binding; settings: for BRD4 DSF (ΔTm): Table 2; for DSF ΔTm: Table 1
MM1.S cells = assay: Antiproliferative activity, MM1.S cells; format: cell-based; settings: Homo sapiens, Table 2, read-out: GI50 (MM1S)
Experimental: Cellular activity of promising compounds is assessed using MM.1S and MV4-11 AML cells using c-Myc levels as biomarker (6-12 hr treatment) and antiproliferative activity (48-72 hr treatment) as described (Ciceri et al., Dual kinase-bromodomain inhibitors for rationally designed polypharmacology. Nat Chem Biol 2014).

| Structure (SMILES) | BRD4 DSF (ΔTm) (BRD4) [°C] | GI50 (MM1.S cells) [nM] | DSF ΔTm (BRD4) [°C] |
| --- | --- | --- | --- |
| CN1CCC(c2ccc(Nc3ncc(C(F)F)c(Nc4ccc(Cl)c(NS(=O)(=O)C(C)(C)C)c4)n3)cc2F)CC1 [PN1-117, N-(2-Chloro-5-((5-(difluoromethyl)-2-((3-fluoro-4-(1-methylpiperidin-4-yl)phenyl)amino)pyrimidin-4-yl)amino)phenyl)-2-methylpropane-2-sulfonamide] | 12.7 | 240 | – |
| Cc1cnc(Nc2cc(F)c(C3CCN(C)CC3)c(F)c2)nc1Nc1ccc(F)c(NS(=O)(=O)C(C)(C)C)c1 [PN2-123, N-(5-((2-((3,5-Difluoro-4-(1-methylpiperidin-4-yl)phenyl)amino)-5-methylpyrimidin-4-yl)amino)-2-fluorophenyl)-2-methylpropane-2-sulfonamide] | 14.7 | 81 | – |
| Cc1cnc(Nc2ccc(N3CCN(C)CC3)c(F)c2)cc1Nc1ccc(Cl)c(NS(=O)(=O)C(C)(C)C)c1 [MA9-036, N-(2-Chloro-5-((2-((3-fluoro-4-(4-methylpiperazin-1-yl)phenyl)amino)-5-methylpyridin-4-yl)amino)phenyl)-2-methylpropane-2-sulfonamide] | – | 3120 | – |
| Cc1cc(Nc2ncc(C)c(Nc3ccc(Cl)c(NS(=O)(=O)C(C)(C)C)c3)n2)c(F)cc1C1CCN(C)CC1 [PN1-119, N-(2-Chloro-5-((2-((2-fluoro-5-methyl-4-(1-methylpiperidin-4-yl)phenyl)amino)-5-methylpyrimidin-4-yl)amino)phenyl)-2-methylpropane-2-sulfonamide] | – | 390 | – |
| Cc1cnc(Nc2ccc(C3=CCN(C)CC3)c(F)c2)nc1Nc1ccc(Cl)c(NS(=O)(=O)C(C)(C)C)c1 [PN1-101, N-(2-Chloro-5-((2-((3-fluoro-4-(1-methyl-1,2,3,6-tetrahydropyridin-4-yl)phenyl)amino)-5-methylpyrimidin-4-yl)amino)phenyl)-2-methylpropane-2-sulfonamide] | 13.5 | 100 | – |
| Cc1cnc(Nc2ccc(C3CCN(C)CC3)c(F)n2)nc1Nc1ccc(Cl)c(NS(=O)(=O)C(C)(C)C)c1 [PN2-102, N-(2-Chloro-5-((2-((6-fluoro-5-(1-methylpiperidin-4-yl)pyridin-2-yl)amino)-5-methylpyrimidin-4-yl)amino)phenyl)-2-methylpropane-2-sulfonamide] | 13.0 | 109 | – |
| Cc1cnc(Nc2ccc(OCCN3CCCC3)cc2)nc1Nc1ccc(Cl)c(NS(=O)(=O)C(C)(C)C)c1 | – | – | 12.9 ± 0.1 |
| Cc1cnc(Nc2ccc(OCCN3CCCC3)c(F)c2)nc1Nc1ccc(Cl)c(NS(=O)(=O)C(C)(C)C)c1 | – | – | 15.1 ± 0.1 |
| Cc1cnc(Nc2cc(F)c(C3CCN(C)CC3)c(F)c2)nc1Nc1cccc(NS(=O)(=O)C(C)(C)C)c1 [PN2-124, N-(3-((2-((3,5-Difluoro-4-(1-methylpiperidin-4-yl)phenyl)amino)-5-methylpyrimidin-4-yl)amino)phenyl)-2-methylpropane-2-sulfonamide] | 13.4 | 80 | – |
| Cc1cnc(Nc2cc(F)ncn2)nc1Nc1ccc(Cl)c(NS(=O)(=O)C(C)(C)C)c1 [PN2-064, N-(2-Chloro-5-((2-((6-fluoropyrimidin-4-yl)amino)-5-methylpyrimidin-4-yl)amino)phenyl)-2-methylpropane-2-sulfonamide] | 1.1 | – | – |
| CN1CCC(c2ccc(Nc3ncc(C(F)(F)F)c(Nc4ccc(Cl)c(NS(=O)(=O)C(C)(C)C)c4)n3)cc2F)CC1 | – | – | 10.4 ± 0.1 |
| Cc1cnc(Nc2ccc(C3CCN(C)CC3)c(F)n2)nc1Nc1cc(NS(=O)(=O)C(C)(C)C)ncn1 [MA10-179, N-(6-((2-((6-fluoro-5-(1-methylpiperidin-4-yl)pyridin-2-yl)amino)-5-methylpyrimidin-4-yl)amino)pyrimidin-4-yl)-2-methylpropane-2-sulfonamide] | 1.4 | – | – |
| Cc1cnc(Nc2ccc(C3CCN(C)CC3)c(F)c2)nc1Nc1ncc2ccn(S(=O)(=O)C(C)(C)C)c2n1 [MA11-003, N4-(7-(tert-butylsulfonyl)-7H-pyrrolo[2,3-d]pyrimidin-2-yl)-N2-(3-fluoro-4-(1-methylpiperidin-4-yl)phenyl)-5-methylpyrimidine-2,4-diamine] | 8.0 | – | – |
| CN1CCC(c2ccc(Nc3ncc(C(N)=O)c(Nc4ccc(Cl)c(NS(=O)(=O)C(C)(C)C)c4)n3)cc2F)CC1 [PN1-134, 4-((4-Chloro-3-((1,1-dimethylethyl)sulfonamido)phenyl)amino)-2-((3-fluoro-4-(1-methylpiperidin-4-yl)phenyl)amino)pyrimidine-5-carboxamide] | 13.7 | 580 | – |
| CN1CCN(c2ccc(Nc3ncc(F)c(Nc4ccc(Cl)c(NS(=O)(=O)C(C)(C)C)c4)n3)cc2)CC1 | – | – | 9.6 ± 0.9 |
| Cc1cnc(Nc2ccc(N3CCN(C)CC3)cn2)nc1Nc1ccc(Cl)c(NS(=O)(=O)C(C)(C)C)c1 [PN2-091, N-(2-Chloro-5-((5-methyl-2-((5-(4-methylpiperazin-1-yl)pyridin-2-yl)amino)pyrimidin-4-yl)amino)phenyl)-2-methylpropane-2-sulfonamide] | 11.5 | – | – |

| Structure (SMILES) | BRD4 DSF (ΔTm) (BRD4) [°C] | GI50 (MM1.S cells) [nM] | DSF ΔTm (BRD4) [°C] |
| --- | --- | --- | --- |
| Cc1cnc(Nc2cc(F)c(C3CCN(C)CC3)cn2)nc1Nc1ccc2ccn(S(=O)(=O)C(C)(C)C)c2n1 [MA10-149, N4-(1-(tert-butylsulfonyl)-1H-pyrrolo[2,3-b]pyridin-6-yl)-N2-(4-fluoro-5-(1-methylpiperidin-4-yl)pyridin-2-yl)-5-methylpyrimidine-2,4-diamine] | 6.2 | – | – |
| Cc1cnc(Nc2cc(F)c(C3CCN(C)CC3)cn2)nc1Nc1cc(NS(=O)(=O)C(C)(C)C)ncn1 [MA10-178, N-(6-((2-((4-fluoro-5-(1-methylpiperidin-4-yl)pyridin-2-yl)amino)-5-methylpyrimidin-4-yl)amino)pyrimidin-4-yl)-2-methylpropane-2-sulfonamide] | 2.8 | – | – |
| Cc1cnc(Nc2ccc(C3CCN(C)CC3)cn2)nc1Nc1ccc(Cl)c(NS(=O)(=O)C(C)(C)C)c1 [PN2-081, N-(2-Chloro-5-((5-methyl-2-((5-(1-methylpiperidin-4-yl)pyridin-2-yl)amino)pyrimidin-4-yl)amino)phenyl)-2-methylpropane-2-sulfonamide] | 12.3 | – | – |
| Cc1cnc(Nc2ccc(OCCN3CCCC3)c(F)c2)nc1Nc1cc(NS(=O)(=O)C(C)(C)C)ncn1 [MA10-176, N-(6-((2-((3-fluoro-4-(2-(pyrrolidin-1-yl)ethoxy)phenyl)amino)-5-methylpyrimidin-4-yl)amino)pyrimidin-4-yl)-2-methylpropane-2-sulfonamide] | 1.4 | – | – |
| Cc1cnc(Nc2ccc(OCCN3CCCC3)cc2)nc1Nc1cc(NS(=O)(=O)C(C)(C)C)ncn1 | 1.1 | – | – |
| Cc1cnc(Nc2cc(F)c(C3CCNCC3)cn2)nc1Nc1ccc(Cl)c(NS(=O)(=O)C(C)(C)C)c1.Cl [PN2-084, N-(2-Chloro-5-((2-((4-fluoro-5-(piperidin-4-yl)pyridin-2-yl)amino)-5-methylpyrimidin-4-yl)amino)phenyl)-2-methylpropane-2-sulfonamide hydrochloride] | 14.5 | – | – |
| Cc1cnc(Nc2cc(F)c(N3CCN(C)CC3)c(F)c2)cc1Nc1ccc(Cl)c(NS(=O)(=O)C(C)(C)C)c1 [MA9-037, N-(2-Chloro-5-((2-((3,5-difluoro-4-(4-methylpiperazin-1-yl)phenyl)amino)-5-methylpyridin-4-yl)amino)phenyl)-2-methylpropane-2-sulfonamide·bisformate] | – | 2830 | – |
| Cc1cnc(Nc2ccc(N3CCN(C)CC3)c(F)c2)cc1Nc1ccc2c(c1)N(S(=O)(=O)C(C)(C)C)CC2 [MA9-042, N^4-(1-(tert-Butylsulfonyl)indolin-6-yl)-N^2-(3-fluoro-4-(4-methylpiperazin-1-yl)phenyl)-5-methylpyridine-2,4-diamine] | 6.1 | – | – |
| Cc1cnc(Nc2cc(F)c(C3CCN(C)CC3)cn2)nc1Nc1cccc(NS(=O)(=O)C(C)(C)C)c1 [PN2-103, N-(3-((2-((4-Fluoro-5-(1-methylpiperidin-4-yl)pyridin-2-yl)amino)-5-methylpyrimidin-4-yl)amino)phenyl)-2-methylpropane-2-sulfonamide] | 12.4 | – | – |
| Cc1cnc(Nc2ccc(C3CCN(C)CC3)cc2)cc1Nc1cccc(NS(=O)(=O)C(C)(C)C)c1 [SY3-030, 2-Methyl-N-(3-((5-methyl-2-((4-(1-methylpiperidin-4-yl)phenyl)amino)pyridin-4-yl)amino)phenyl)propane-2-sulfonamide] | 6.3 | – | – |
| Cc1cnc(Nc2ccc(OCCN3CCCC3)c(F)c2)nc1Nc1cccc(NS(=O)(=O)C(C)(C)C)c1 | – | – | 12.6 ± 0.1 |
| Cc1cnc(Nc2ccc(C3CCN(C)CC3)c(F)c2)nc1Nc1cc(NS(=O)(=O)C(C)(C)C)ncn1 [MA10-174, N-(6-((2-((3-fluoro-4-(1-methylpiperidin-4-yl)phenyl)amino)-5-methylpyrimidin-4yl)amino)pyrimidin-4-yl)-2-methylpropane-2-sulfonamide] | 0.9 | – | – |
| Cc1cnc(Nc2ccc(C3CCN(C)CC3)c(F)c2)nc1Nc1ccc2ccn(S(=O)(=O)C(C)(C)C)c2n1 [MA10-148, N4-(1-(Tert-butylsulfonyl)-1H-pyrrolo[2,3b]pyridin-6-yl)-N2-(3-fluoro-4-(1-methylpiperidin-4-yl)phenyl)-5-methylpyrimidine-2,4-diamine] | 7.6 | – | – |
| Cc1cnc(Nc2ccc(C3CCN(C)CC3)c(F)c2)cc1Nc1ccc2c(c1)N(S(=O)(=O)C(C)(C)C)CC2 [drawing 16] | – | – | 8.9 ± 0.2 |
| Cc1cnc(Nc2cc(F)c(C3CCN(C)CC3)c(F)c2)nc1Nc1cc(NS(=O)(=O)C(C)(C)C)ncn1 [MA11-009, N-(6-((2-((3,5-difluoro-4-(1-methylpiperidin-4-yl)phenyl)amino)-5-methylpyrimidin-4-yl)amino)pyrimidin-4-yl)-2-methylpropane-2-sulfonamide] | 1.1 | – | – |
